Literature values in patent publication US12590059B2, “Process for the production of levetiracetam” (Suzhou BrightHope Pharmatech Co., Ltd, priority 2023, dated 2026).

Conditions: stated as known

- solubility in water: about 100 g/100 mL water
SMILES: CC[C@@H](C(N)=O)N1CCCC1=O [Levetiracetam]
